Measurements from patent publication US20200207782A1, “CHEMICALLY ACTIVATED WATER-SOLUBLE PRODRUG” (SUMITOMO DAINIPPON PHARMA CO., LTD, priority 2017, published 2020).
≈ marks a conversion by molar mass, not a printed value.

What was measured:
physchem = conditions: 50 mmol/L glycine buffer, thermodynamic from solid; for solubility at 24 h: pH 2, aqueous buffer
Description: The solubility of the water-soluble prodrugs described in the Examples and the Reference Examples was measured. […] The filtrate was measured by HPLC.

[1] = Solution stability test (residual ratio and generation of active form in buffers of pH 2.0 to 9.0); format: physicochemical; parameters: Rate of generation of active form after 24 hours in buffer with pH of 7.4: tested at 25 µM; conditions: for Degradation behaviour in buffers (in words): pH 2.0 to 9.0; for Rate of generation of active form after 24 hours in buffer with pH of 7.4: pH 7.4 buffer, 25° C.
Description: The test compounds were incubated at 25° C. at a concentration of 25 umol/L in a buffer prepared to have a pH of 2.0, 3.0, 5.0, 7.4, and 9.0. The compounds were measured by HPLC after 0, 3, 6, 9, 12, and 24 hours.
The buffers used at each pH are the following. • pH 2.0: 50 mmol/L glycine buffer • pH 3.0: 50 mmol/L citrate buffer • pH 5.0: 50 mmol/L citrate buffer • pH 7.4: 50 mmol/L phosphate buffer • pH 9.0: 50 mmol/L glycine buffer
The measurement conditions for HPLC are the following.
The yield of the Example and Reference Example compounds and active forms is calculated with each of the peak area of the Example and Reference Example compounds at 0 minutes and the peak area upon dissolution of the corresponding active form at 100 umol/L as 100%. The yield is denoted in terms of %

[2] = Evaluation of conversion rate to active form in CD1 mouse plasma; format: in vitro ADME; conditions: CD1 mouse plasma, incubation time 120 minutes
Description: (§1) The ratio of decrease of a test compound and the conversion ratio to a corresponding active form (2-acetylthieno[3,2-f][1]benzofuran-4,8-dione) in human plasma and CD1 mouse plasma were measured for Example 1.
(§2) The test compounds were incubated at 37° C. at a concentration of 10 umol/L in human plasma (cat. no. 12250210, Cosmo Bio) and CD1 mouse plasma (cat. no. AP3054, KAC) and retrieved for a given time (0, 5, 10, 30, 60, and 120 minutes) and deproteinized, then analyzed by LC-MS. Acetonitrile comprising each of 10% quantity of 1 mol/L hydrochloric acid, 1% quantity of 46% citric acid, and phenytoin as an internal standard was used for deproteinization.
(§3) LC-MS measurement conditions were the following.
(§4) The yield of the Examples compounds and active form 2-acetylthieno[3,2-f][1]benzofuran-4,8-dione is calculated with each of the peak area of the Example compounds at 0 minutes and the peak area upon dissolution of 2-acetylthieno[3,2-f][1]benzofuran-4,8-dione at 100 umol/L as 100%. The yield is denoted in terms of %.
(§5) In the same manner as Example 1, the conversion ratio to an active form was measured for each of the various test compounds in human plasma and CD1 mouse plasma, with incubation time as 120 minutes. It was confirmed that the series of compounds of the invention was converted to an active form with a small interspecies difference in human plasma and CD1 mouse plasma.
(§6) The yield of the active forms is calculated with the each peak area upon dissolution of the generated active form at 100 umol/L as 100%. The yield is denoted in terms of %.

[3] = Evaluation of conversion rate to active form in human plasma; format: in vitro ADME; conditions: Human plasma, incubation time 120 minutes
Description: as §1, §2, §3, §4, §5, §6

SMILES	Degradation behaviour in buffers (in words) [1]	Stability in solution (in words) ([1]; pH of 2.0, 25° C.)	Stability in solution (in words) ([1]; pH of 3.0, 25° C.)	Rate of generation of active form after 24 hours in buffer with pH of 7.4 [1] [%]	other results
CC(=O)c1cc2c(o1)C(=O)c1cccc(O)c1C2=O [2-acetyl-5-hydroxynaphtho[2,3-b]furan-4,9-dione, reference compound]	–	–	–	–	solubility (physchem; pH 3, aqueous buffer): 1 µg/mL (≈ 3.9 µM)
CNCCN(C)C(=O)Oc1cc(O)c([C@H]2CCN(C)C[C@H]2O)c2oc(-c3ccccc3Cl)cc(=O)c12 [Example 11, 2-(2-Chlorophenyl)-7-hydroxy-8-[(3S,4R)-3-hydroxy-1-methylpiperidin-4-yl]-4-oxo-4H-chromen-5-yl methyl[2-(methylamino)ethyl]carbamate ditrifluoroacetate]	pH dependent and chemical degradation progressed	stable	stable	–	Stability in solution (in words) ([1]; pH of 5.0, 25° C.): stable
COC(=O)[C@H](CCNC(=O)Oc1c(C)c(CCCCCCCCCCOC(=O)OC(C)(C)C)c(OC(=O)NCC[C@H](NC(=O)OC(C)(C)C)C(=O)OC)c(OC)c1OC)NC(=O)OC(C)(C)C [Reference Example 11, Dimethyl (2S,2′S)-4,4′-[(2-{10-[(tert-butoxycarbonyl)oxy]decayl}-5,6-dimethoxy-3-methylbenzene-1,4-diyl)bis(oxycarbonylimino)]bis{2-[(tert-butoxycarbonyl)amino]butanoate}]	–	–	–	91	Conversion ratio to an active form (Measurement value %) [2]: 100%; Conversion ratio to an active form (Measurement value %) [3]: 100%
O=C1C(=O)C(c2ccccc2)=C2OCOC2=C1c1ccccc1 [4,7-diphenyl-1,3-benzodioxol-5,6-dione, reference compound]	–	–	–	–	solubility at 24 h (physchem): 0.3 µg/mL (≈ 0.986 µM)
CN1CC[C@H](c2c(O)cc(OC(=O)N(C)CCN)c3c(=O)cc(-c4ccccc4Cl)oc23)[C@H](O)C1 [Example 9, 2-(2-chlorophenyl)-7-hydroxy-8-[(3S,4R)-3-hydroxy-1-methylpiperidin-4-yl]-4-oxo-4H-chromen-5-yl (2-aminoethyl)methylcarbamate ditrifluoroacetate]	pH dependent and chemical degradation progressed	stable	stable	23	Stability in solution (in words) ([1]; pH of 5.0, 25° C.): stable
CC1=CC(=O)c2ccccc2C1=O [2-methylnaphthalen-1,4-dione, reference compound]	–	–	–	–	solubility at 24 h (physchem): 97 µg/mL (≈ 563 µM)
CNCCN(C)C(=O)Oc1cc(O)c2c(=O)cc(-c3ccccc3Cl)oc2c1[C@H]1CCN(C)C[C@H]1O [Example 10, 2-(2-Chlorophenyl)-5-hydroxy-8-[(3S,4R)-3-hydroxy-1-methylpiperidin-4-yl]-4-oxo-4H-chromen-7-yl methyl[2-(methylamino)ethyl]carbamate ditrifluoroacetate]	pH dependent and chemical degradation progressed	sufficient stability	sufficient stability	96	–
